Assays:
[1] = system: CCRF-CEM; test: Cytotoxicity against human CCRF-CEM cells assessed as growth inhibition at 10 uM after 48 hrs by sulforhodamine B assay; type: functional; details: read-out: GI
[2] = system: K562; test: Cytotoxicity against human K562 cells assessed as growth inhibition at 10 uM after 48 hrs by sulforhodamine B assay; type: functional; details: read-out: GI
[3] = system: MOLT-4; test: Cytotoxicity against human MOLT-4 cells assessed as growth inhibition at 10 uM after 48 hrs by sulforhodamine B assay; type: functional; details: read-out: GI
[4] = system: SR; test: Cytotoxicity against human SR cells assessed as growth inhibition at 10 uM after 48 hrs by sulforhodamine B assay; type: functional; details: read-out: GI
[5] = system: A549; test: Cytotoxicity against human A549 cells assessed as growth inhibition at 10 uM after 48 hrs by sulforhodamine B assay; type: functional; details: read-out: GI
[6] = system: HOP-62; test: Cytotoxicity against human HOP-62 cells assessed as growth inhibition at 10 uM after 48 hrs by sulforhodamine B assay; type: functional; details: read-out: GI
[7] = system: HOP-92; test: Cytotoxicity against human HOP-92 cells assessed as growth inhibition at 10 uM after 48 hrs by sulforhodamine B assay; type: functional; details: read-out: GI
[8] = system: NCI-H522; test: Cytotoxicity against human NCI-H522 cells assessed as growth inhibition at 10 uM after 48 hrs by sulforhodamine B assay; type: functional; details: read-out: GI
[9] = system: HCT-116; test: Cytotoxicity against human HCT-116 cells assessed as growth inhibition at 10 uM after 48 hrs by sulforhodamine B assay; type: functional; details: read-out: GI
[10] = system: HCT-15; test: Cytotoxicity against human HCT-15 cells assessed as growth inhibition at 10 uM after 48 hrs by sulforhodamine B assay; type: functional; details: read-out: GI
[11] = system: SF-268; test: Cytotoxicity against human SF-268 cells assessed as growth inhibition at 10 uM after 48 hrs by sulforhodamine B assay; type: functional; details: read-out: GI
[12] = system: SF-295; test: Cytotoxicity against human SF-295 cells assessed as growth inhibition at 10 uM after 48 hrs by sulforhodamine B assay; type: functional; details: read-out: GI
[13] = system: SNB-19; test: Cytotoxicity against human SNB-19 cells assessed as growth inhibition at 10 uM after 48 hrs by sulforhodamine B assay; type: functional; details: read-out: GI
[14] = system: U-251; test: Cytotoxicity against human U-251 cells assessed as growth inhibition at 10 uM after 48 hrs by sulforhodamine B assay; type: functional; details: read-out: GI
[15] = system: LOX IMVI; test: Cytotoxicity against human LOX IMVI cells assessed as growth inhibition at 10 uM after 48 hrs by sulforhodamine B assay; type: functional; details: read-out: GI
[16] = system: UACC-62; test: Cytotoxicity against human UACC-62 cells assessed as growth inhibition at 10 uM after 48 hrs by sulforhodamine B assay; type: functional; details: read-out: GI
[17] = system: OVCAR-8; test: Cytotoxicity against human OVCAR8 cells assessed as growth inhibition at 10 uM after 48 hrs by sulforhodamine B assay; type: functional; details: read-out: GI
[18] = system: NCI/ADR-RES; test: Cytotoxicity against human NCI-ADR-RES cells assessed as growth inhibition at 10 uM after 48 hrs by sulforhodamine B assay; type: functional; details: read-out: GI
[19] = system: SN12C; test: Cytotoxicity against human SN12C cells assessed as growth inhibition at 10 uM after 48 hrs by sulforhodamine B assay; type: functional; details: read-out: GI
[20] = Cytotoxicity against human Hs 578T cells assessed as growth inhibition at 10 uM after 48 hrs by sulforhodamine B assay; type: functional; details: read-out: GI
[21] = system: T47D; test: Cytotoxicity against human T47D cells assessed as growth inhibition at 10 uM after 48 hrs by sulforhodamine B assay; type: functional; details: read-out: GI
[22] = system: MDA-MB-468; test: Cytotoxicity against human MDA-MB-468 cells assessed as growth inhibition at 10 uM after 48 hrs by sulforhodamine B assay; type: functional; details: read-out: GI
[23] = Selectivity index, ratio of IC50 for human MCF-10A cells to IC50 for human MCF7 cells; type: toxicity; details: MCF-10A cells versus MCF7 cells, read-out: Ratio IC50
[24] = system: MCF7; test: Induction of cell cycle arrest in human MCF7 cells assessed as accumulation of cells at G1 phase at IC50 concentration by Propidium iodide staining based flow cytometric analysis (reference value: 61.45%); type: functional
[25] = system: MCF7; test: Induction of cell cycle arrest in human MCF7 cells assessed as accumulation of cells at G2/M phase at IC50 concentration by Propidium iodide staining based flow cytometric analysis (reference value: 10.94%); type: functional
[26] = system: MCF7; test: Induction of apoptosis in human MCF7 cells assessed as late apoptotic cells at 13.30 uM after 48 hrs by annexin V-FITC/propidium iodide staining based flow cytometric analysis (reference value: 0.14%); type: functional; details: dose 13.3 µM
[27] = target: Phosphatidylinositol 4,5-bisphosphate 3-kinase catalytic subunit beta isoform (Homo sapiens, UniProt P42338); test: Inhibition of PI3Kbeta (unknown origin) using PIP2 as substrate preincubated for 10 mins followed by substrate addition and measured after 1 hr by ELISA
[28] = target: T1, Phosphatidylinositol 4,5-bisphosphate 3-kinase catalytic subunit delta isoform (Homo sapiens, UniProt O00329); test: Inhibition of PI3Kdelta (unknown origin) using PIP2 as substrate preincubated for 10 mins followed by substrate addition and measured after 1 hr by ELISA
T1 sequence (O00329 whole entry): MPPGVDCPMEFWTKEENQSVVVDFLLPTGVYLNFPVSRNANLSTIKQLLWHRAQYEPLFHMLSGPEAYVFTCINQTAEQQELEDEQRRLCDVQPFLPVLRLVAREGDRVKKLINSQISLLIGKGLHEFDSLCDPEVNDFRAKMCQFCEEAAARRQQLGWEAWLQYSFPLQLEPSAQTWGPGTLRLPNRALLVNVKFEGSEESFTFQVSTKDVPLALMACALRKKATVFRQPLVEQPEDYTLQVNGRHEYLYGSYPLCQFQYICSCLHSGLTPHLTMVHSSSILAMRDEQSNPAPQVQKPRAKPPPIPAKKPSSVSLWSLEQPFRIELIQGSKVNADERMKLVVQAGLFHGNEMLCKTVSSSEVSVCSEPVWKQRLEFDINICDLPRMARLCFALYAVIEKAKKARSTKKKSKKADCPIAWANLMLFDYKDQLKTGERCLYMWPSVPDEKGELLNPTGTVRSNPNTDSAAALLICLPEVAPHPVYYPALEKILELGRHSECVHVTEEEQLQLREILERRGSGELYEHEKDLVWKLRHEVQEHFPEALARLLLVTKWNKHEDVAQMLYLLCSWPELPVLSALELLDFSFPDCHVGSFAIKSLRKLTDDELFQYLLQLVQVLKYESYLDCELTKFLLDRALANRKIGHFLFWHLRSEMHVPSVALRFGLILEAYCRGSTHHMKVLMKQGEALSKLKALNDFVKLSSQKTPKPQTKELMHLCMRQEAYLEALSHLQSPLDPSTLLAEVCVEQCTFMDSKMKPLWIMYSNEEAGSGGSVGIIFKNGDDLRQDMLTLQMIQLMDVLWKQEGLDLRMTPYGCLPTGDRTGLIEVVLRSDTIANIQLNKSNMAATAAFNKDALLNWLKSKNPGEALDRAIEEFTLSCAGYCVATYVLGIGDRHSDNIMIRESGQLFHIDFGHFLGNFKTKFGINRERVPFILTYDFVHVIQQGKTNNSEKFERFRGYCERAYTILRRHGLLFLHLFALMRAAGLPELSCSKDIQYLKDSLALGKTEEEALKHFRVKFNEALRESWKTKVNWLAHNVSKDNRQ

Sequence of Phosphatidylinositol 4,5-bisphosphate 3-kinase catalytic subunit beta isoform (P42338 whole entry, canonical isoform): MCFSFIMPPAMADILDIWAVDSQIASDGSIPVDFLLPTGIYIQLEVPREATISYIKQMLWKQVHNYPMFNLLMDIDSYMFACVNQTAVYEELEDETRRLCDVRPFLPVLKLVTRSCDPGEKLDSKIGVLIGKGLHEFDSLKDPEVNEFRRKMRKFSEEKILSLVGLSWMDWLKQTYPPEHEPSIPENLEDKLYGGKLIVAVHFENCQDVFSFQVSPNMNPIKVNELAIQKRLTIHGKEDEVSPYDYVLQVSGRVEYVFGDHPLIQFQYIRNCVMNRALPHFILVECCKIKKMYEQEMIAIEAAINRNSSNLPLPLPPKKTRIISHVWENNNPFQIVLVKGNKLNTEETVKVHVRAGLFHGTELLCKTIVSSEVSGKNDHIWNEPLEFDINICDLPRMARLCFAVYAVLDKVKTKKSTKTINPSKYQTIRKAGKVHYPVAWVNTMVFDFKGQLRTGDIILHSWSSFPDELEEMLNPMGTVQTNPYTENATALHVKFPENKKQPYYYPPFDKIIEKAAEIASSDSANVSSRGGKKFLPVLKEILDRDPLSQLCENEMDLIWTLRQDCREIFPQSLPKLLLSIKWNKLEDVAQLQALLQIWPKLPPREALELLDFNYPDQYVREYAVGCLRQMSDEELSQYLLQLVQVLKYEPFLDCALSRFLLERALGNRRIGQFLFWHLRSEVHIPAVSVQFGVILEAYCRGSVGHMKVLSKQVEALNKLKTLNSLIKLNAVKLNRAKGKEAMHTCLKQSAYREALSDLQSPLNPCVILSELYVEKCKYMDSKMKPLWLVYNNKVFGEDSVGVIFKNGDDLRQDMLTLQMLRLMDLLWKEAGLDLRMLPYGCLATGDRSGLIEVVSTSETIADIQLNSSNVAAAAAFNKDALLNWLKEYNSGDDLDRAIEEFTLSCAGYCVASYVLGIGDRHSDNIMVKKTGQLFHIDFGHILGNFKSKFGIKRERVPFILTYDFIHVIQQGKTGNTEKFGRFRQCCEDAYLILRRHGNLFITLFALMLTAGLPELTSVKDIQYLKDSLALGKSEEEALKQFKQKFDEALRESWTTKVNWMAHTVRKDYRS

Question: What does the source list for `COC(=O)/C=C1\S/C(=N\N=C\c2ccc(OCC(F)(F)F)cc2)N(c2ccccc2)C1=O`?
Answer: inhibition of growth at 10 µM [1]: 13.5%; inhibition of growth at 10 µM [2]: 25.7%; inhibition of growth at 10 µM [3]: 13.4%; inhibition of growth at 10 µM [4]: 24.7%; inhibition of growth at 10 µM [5]: 15.3%; inhibition of growth at 10 µM [6]: 31.5%; inhibition of growth at 10 µM [7]: 20.1%; inhibition of growth at 10 µM [8]: 12.2%; inhibition of growth at 10 µM [9]: 28.8%; inhibition of growth at 10 µM [10]: 17.3%; inhibition of growth at 10 µM [11]: 11.8%; inhibition of growth at 10 µM [12]: 13.2%; inhibition of growth at 10 µM [13]: 18.2%; inhibition of growth at 10 µM [14]: 23.1%; inhibition of growth at 10 µM [15]: 24.1%; inhibition of growth at 10 µM [16]: 18.9%; inhibition of growth at 10 µM [17]: 35.5%; inhibition of growth at 10 µM [18]: 24.6%; inhibition of growth at 10 µM [19]: 28.6%; inhibition of growth at 10 µM [20]: 43%; inhibition of growth at 10 µM [21]: 14.5%; inhibition of growth at 10 µM [22]: 47.6%; selectivity ratio [23]: 1.81; Activity [24]: 55.47%; Activity [25]: 8.51%; Activity [26]: 9.42%; IC50 [27]: 53.5 µM; IC50 [28]: 121 µM

From ChEMBL document CHEMBL5055672, “Design, Synthesis, Biological Evaluation, and Computational Studies of Novel Fluorinated Candidates as PI3K Inhibitors: Targeting Fluorophilic Binding Sites” (J Med Chem, 2021)
